Data: patent US8859284B2, “Delivery of nanoparticles to neurons” (The United States of America, as represented by the …, priority 2009, dated 2014)
Where two headings read alike, the source gives them in different places. Square brackets hold non-standard residues; d marks the D form. Ends that are not written are not given here. Peptide text beside a SMILES is read from it. * marks the point of attachment. Palmitoyl = CCCCCCCCCCCCCCCC(=O)*; Dap = NC[C@H](N)C(=O)O; Aib = CC(C)(N)C(=O)O

What was measured:
[1] = test system: HEK 293T/17 cells
Method: Cellular toxicity was assessed using the CellTiter 96 Cell Proliferation Assay (Promega, Madison Wis.) according to the manufacturer's instructions. This assay is based upon the conversion of a tetrazolium substrate to a formazan product by viable cells at the assay end point (see reference 24). Cells (1×10^4 cells/well) were cultured in 96-well microtiter plates in complete growth medium in the presence of increasing concentrations of QDs, free peptide or polymer, or QDs in complex with peptide or polymer. In each case, the materials were incubated with the cells for the time required for efficient QD uptake. The materials were subsequently replaced with complete growth medium and the cells were cultured for 72 hours.

[2] = test system: HEK 293T/17 cells; experiment: Cellular delivery of QDs, intracellular fate by fluorescence microscopy; details: for disruption of endosomes: with QD-CPP, 2-3 h, highest concentrations (500 mM sucrose or 500 μM chloroquine); for Quantum Dot Fate: summary of QD delivery strategies, some agents also tested in COS-1
Method: Human embryonic kidney (HEK 293T/17) and African green monkey kidney (COS-1) cell lines (ATCC, Manassas, Va.) were cultured in complete growth medium (Dulbecco's Modified Eagle's Medium (DMEM; purchased from ATCC)) supplemented with 1% (v/v) antibiotic/antimycotic and 10% (v/v) heat inactivated fetal bovine serum (ATCC). Cells were cultured in T-25 flasks and incubated at 37° C. under 5% CO2 atmosphere and a subculture was performed every 3-4 days (see reference 13).
The QD delivery experiments were performed on adherent cells seeded into the wells of Lab-Tek 8-well chambered #1 borosilicate coverglass (Nalge Nunc, Rochester, N.Y.) coated with 2 μg/mL fibronectin. For electroporation and nucleofection, adherent cells were harvested by trypsinization prior to performing QD delivery to cells in suspension. Cells were then seeded to chambered coverglass wells and imaged after cell attachment. The endosomal marker AlexaFluor647-transferrin was included as indicated in the text. For imaging, cells were washed with phosphate buffered saline (PBS, 137 mM NaCl, 10 mM phosphate, 3 mM KCl, pH 7.4), fixed with 3.7% paraformaldehyde in PBS and nuclei were stained with DAPI (Sigma) unless otherwise indicated.
For electroporation, cells were harvested by trypsinization and recovered for 1 hour in complete growth medium, pelleted, and resuspended in PBS. 510 nm DHLA-PEG QDs (0.5 μM final concentration) were mixed with 1×10^4 cells to a final volume of 100 μL in PBS in a 0.2 mm electroporation cuvette. The cuvette was subjected to 100 V for a 20 ms pulse using a GenePulser XCell electroporator (Bio-Rad, Hercules, Calif.). Cells were resuspended in complete growth medium, seeded into fibronectin-coated 8-well chambered coverglass, fixed and imaged after 24 hrs. For nucleofection delivery, 1×10^6 cells were harvested and resuspended in 100 μL of NUCLEOFECTOR reagent (Amaxa, Gaithersburg, Md.). 510 nm DHLA-PEG QDs were included at a final concentration of 0.4 μM. The cell/QD/reagent mixture was pulsed in the NUCLEOFECTOR using a preset protocol adapted for each specific cell line (20, 21). Cells were cultured and imaged as described for electroporation.
The INFLUX cell-loading reagent mediates the intracellular release of materials internalized via pinocytic vesicles by delivering the materials to cells in a hypertonic medium followed by the transfer of the cells to a hypotonic medium to induce vesicle disruption (see reference 22). 510 nm DHLA-PEG QDs were diluted to a final concentration of 300-800 nM in the supplied hypertonic delivery media according to manufacturer's instructions and incubated on the cells for 30 min at 37° C. The hypertonic medium was exchanged for hypotonic medium (serum-free culture medium diluted by 40% with deionized water) and incubated on the cells for 3 min. The cells were then recovered in complete growth medium for 30 min and cultured for various lengths of time prior to washing and fixation for imaging.
520 nm QDs with a 1:1 mixed surface of DHLA:DHLA-PEG were incubated with LIPOFECTAMINE 2000 for 20 min in serum free medium at a ratio of 1 μL LIPOFECTAMINE 2000 per 1.5 pmol QD. The complexes, at a final QD concentration of 75 nM, were incubated with the cells for 4 hours, removed and replaced with complete growth medium. The cells were then cultured for 24-36 h prior to washing and fixation.
PEI was incubated with 520 nm mixed surface DHLA:DHLA-PEG QDs in serum free medium at a ratio of 10 μg PEI per 1 pmol QD for 15 min. […] The complexes were then diluted into serum free media to a final QD concentration of 75-100 nM, incubated with cells for 2 h and removed. Cells were then cultured in complete media for 24-36 h, washed and fixed.
A stock solution of 520 nm DHLA:DHLA-PEG QDs (1 μM in 0.1 M borate buffer, pH 8.9) was diluted to 0.5 μM in HEPES (4-(2-hydroxyethyl)-1-piperazineethanesulfonic acid, pH 8.2).

[3] = molecular target: T1, Palmitoyl Protein Thioesterase 1 (PPT1) (Homo sapiens, UniProt P50897); details: competitive inhibitors; acidic environments; cited from earlier work
T1 sequence (P50897 28-306): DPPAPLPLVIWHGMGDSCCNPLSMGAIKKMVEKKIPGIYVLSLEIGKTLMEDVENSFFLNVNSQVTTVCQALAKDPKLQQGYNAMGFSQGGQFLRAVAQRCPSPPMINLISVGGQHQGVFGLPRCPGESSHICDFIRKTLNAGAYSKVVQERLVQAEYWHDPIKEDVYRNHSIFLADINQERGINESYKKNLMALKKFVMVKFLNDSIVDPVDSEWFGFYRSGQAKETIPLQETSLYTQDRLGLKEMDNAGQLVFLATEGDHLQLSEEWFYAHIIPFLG

[4] = test system: HEK 293T/17 cells; experiment: FRET monitoring of intracellular stability of polyhistidine-QD association; assay type: cell-based, Human; details: over three days, no QDs present
Method: (§1) Merged images were generated using Adobe PhotoShop.
To investigate this issue, QD-peptide conjugates were prepared that engaged in FRET and their intracellular interactions were monitored over time. 510 nm DHLA-capped QDs were first assembled with an average of ˜2 Cy3-labeled His6-peptides and then the CPP was added to form the full conjugate (schematic in FIG. 3A). Due to the peptide's small size and proximity of the Cy3 acceptor to the nanocrystal surface, this valence results in a ca. 40% quenching of the QD PL by FRET. The resulting conjugates were delivered to HEK 293T/17 cells and the cells were cultured for three days. QD-donor and Cy3-acceptor FRET interactions over time within the cells were measured by exciting the QD and collecting side-by-side split fluorescence images using the DualView system and deconvoluting the subsequent intensity data. […] When the Cy3/QD emission ratio (normalized and corrected for direct Cy3-acceptor excitation) was calculated a gradual decrease was observed over time, culminating in a 36% decrease over three days (FIG. 3C). […] When Cy3 was delivered to the endosomes as a Cy3-labeled transferrin conjugate (no QDs present), the fluorescence output of the dye decreased approximately 34% over the same time period, in excellent agreement with the decrease observed in the above QD-CPP-Cy3-labeled peptide constructs (FIG. 3D). […]

[5] = test system: HEK 293T/17 cells; details: cited from earlier work
[6] = test system: COS-1 cells; experiment: Cellular uptake and endosomal escape of QD-peptide assemblies, fluorescence microscopy; assay type: cell-based, African green monkey; details: COS1 cells
Method: as §1
The peptide assemblies were incubated with COS-1 cells for 1 hr, removed, and the cells were subsequently cultured for 24 hr prior to fixation. An AlexaFluor 647-transferrin (Tf) conjugate was included during the incubation to label the vesicles of the endocytic pathway. Cell nuclei were stained with DAPI.

[7] = test system: HeLa cells; experiment: QD uptake and endosomal escape in HeLa cells; assay type: cell-based; details: 163 HeLa cells, Palm-1 conjugated to a QD
Method: The Palm-1 peptide was also tested in HeLa cells, and found to be very effective in promoting endosomal escape.

[8] = test system: COS-1 and HEK 293T/17 cells; experiment: Cellular delivery of QDs, result stated for both cell lines together; assay type: cell-based, African green monkey; Human; details: for intracellular distribution of QDs: both cell lines; for degree of endocytic uptake: compared with Palm-1, 72 h observation
Source text: as §1

CC(C)C[C@H](NC(=O)CNC(=O)[C@H](Cc1c[nH]c2ccccc12)NC(=O)[C@H](Cc1c[nH]cn1)NC(=O)[C@H](Cc1c[nH]cn1)NC(=O)[C@H](Cc1c[nH]cn1)NC(=O)[C@H](Cc1c[nH]cn1)NC(=O)[C@H](Cc1c[nH]cn1)NC(=O)[C@@H](N)Cc1c[nH]cn1)C(=O)N[C@@H](C)C(=O)NC(C)(C)C(=O)N[C@@H](CO)C(=O)NCC(=O)N1CCC[C@H]1C(=O)N[C@@H](CCCCN)C(=O)N[C@@H](CCCCN)C(=O)N[C@@H](CCCCN)C(=O)N[C@@H](CCCNC(=N)N)C(=O)N[C@@H](CCCCN)C(=O)N[C@H](C(=O)O)C(C)C [NLS peptide, reference compound] (H-HHHHHHWGLA[Aib]SGPKKKRKV-OH)
Toxicity [1]: minimally toxic

CCN(CC)CCCC(C)Nc1ccnc2cc(Cl)ccc12 (centres unmarked) [chloroquine]
Toxicity [2]: significant cellular toxicity and morbidity | disruption of endosomes [2]: efficiently disrupted the endosomes

O=C(O)CCCc1ccc2ccc3cccc4ccc1c2c34 [pyrenebutyrate]
intracellular distribution of QDs ([2]; HEK 293T/17, endosomal marker AlexaFluor 647-transferrin): no cytosolic dispersal was observed

OC[C@H]1O[C@@](CO)(O[C@H]2O[C@H](CO)[C@@H](O)[C@H](O)[C@H]2O)[C@@H](O)[C@@H]1O [sucrose]
Toxicity [2]: significant cellular toxicity and morbidity | disruption of endosomes [2]: efficiently disrupted the endosomes

AcG(Pal)DapVKIKK
inhibition of palmitoyl thioesterase [3]: low micromolar affinity

Cy3-labeled transferrin conjugate: Cy3 delivered to endosomes as labeled transferrin, no QDs
decrease of fluorescence output of the Cy3 dye [4]: approximately 34%

GDap(Pal)VKIKK
inhibition of palmitoyl thioesterase [3]: low micromolar range

R9GGLA(Aib)SGWKH6 [CPP peptide]
Quantum Dot Fate [2]: Endosomal, QDs punctate | Toxicity [5]: minimally toxic

WGDapaVKIKK(P)9GG(H)6 [JB577]
Quantum Dot Fate [2]: Cytosolic, QDs dispersed | % Escape in cells with uptake ([6]; QD-peptide assemblies): 77% | Overall uptake/escape: uptake ([6]; first word of the cell): High | Overall uptake/escape: escape ([6]; second word of the cell): high | QD uptake [7]: 90% | endosomal escape of the cells with uptake [7]: 86% | endosomal escape of the total [7]: 77% | Toxicity [1]: minimally toxic

WGDapaVKIKKGL(A)4GG(H)6 (WG[Dap](Palmitoyl)VKIKKGLAAAAGGHHHHHH) [Palm-2, No (Pro)9, short linker]
intracellular distribution of QDs [8]: remained completely sequestered within endosomes | degree of endocytic uptake [8]: significant reduction in the degree of endocytic uptake

WGDapaVKIKKGLPAAGG(H)6 [Palm-3]
intracellular distribution of QDs [8]: remained completely sequestered within endosomes | degree of endocytic uptake [8]: significant reduction in the degree of endocytic uptake
